≈ marks a conversion by molar mass, not a printed value.
Assays:
Assay type in all cases: cell-based
[1] = test system: Helicobacter pylori standard strain ATCC 43526 (NCTC 11916); test: Antibacterial test 1: agar plate dilution method (anaerobic MIC method) against Hp; details: 72 h; Helicobacter pylori ATCC 43526 (NCTC 11916); brucella agar + 7% horse blood, microaerobic, 37° C., 3 days
Method: Antibacterial test against Hp was performed in substantial accordance with agar plate dilution method (anaerobic MIC method) based on Standard method of The Japan Society of Chemotherapy to determine minimum inhibitory concentration (MIC) of the respective test compounds. The respective test compounds were sequentially dissolved in dimethyl sulfoxide (DMSO) and serially diluted twofold. […] Strain used for inoculation was Helicobacter pylori standard strain ATCC 43526 (NCTC 11916). For pre-culturing of bacteria to be inoculated, the above-mentioned strain freezingly conserved at -135° C. was thawed in a warm bath (40° C.), applied on a brucella agar medium containing 7% horse blood free from fibrin, and microaerobically cultured in a jar for anaerobic bacteria at 37° C. for 3 days. The solution of bacteria to be inoculated was prepared by collecting colonies grown on the culture medium and suspending the same in the brucella broth.

S.aureus FDA 209P = test: Antibacterial Test 2: agar plate dilution method (aerobic MIC method), S.aureus; details: Staphylococcus aureus, FDA209P, sensitive-disk agar medium-N
Method: (§1) Then, tested were antibacterial activities of the typical compounds of the present invention against gram-positive and-negative bacteria other than Hp. MICs of the typical compounds of the present invention were determined in substantial accordance with agar plate dilution method (aerobic MIC method) based on Standard method of The Japan Society of Chemotherapy.
(§2) The respective test compound were dissolved in dimethyl sulfoxide (DMSO) and serially diluted twofold. These diluted solutions of the compounds were respectively added to sensitive-disk agar medium-N (manufactured by NISSUI SEIYAKU) to prepare agar plates for determination with concentration of 0.05-100 μg/ml.
(§3) The below-mentioned strains freezingly conserved at -135° C. were thawed in a warm bath (40° C.), cultured in a sensitivity-determining bouillon at 37° C. for 18-20 hours, and then diluted with the above-mentioned medium to prepare about 1.0×10^6CFU/ml of bacterial solution.
(§4) Inoculation was made by 5 μl by multi-inoculator (manufactured by SAKUMA SEISAKUSHO). Culturing was made under the same conditions as those of the pre-culturing and the MIC (unit: μg/ml) was determined by observing whether the bacteria grew or not.

M.luteus ATCC 9341 = test: Antibacterial Test 2: agar plate dilution method (aerobic MIC method), M.luteus; details: Micrococcus luteus, ATCC9341, sensitive-disk agar medium-N
Method: as §1, §2, §3, §4

E.faecalis RIMD 3336001 = test: Antibacterial Test 2: agar plate dilution method (aerobic MIC method), E.faecalis; details: Enterococcus faecalis, RIMD3336001, sensitive-disk agar medium-N
Method: as §1, §2, §3, §4

B.subtilis PCI 219 = test: Antibacterial Test 2: agar plate dilution method (aerobic MIC method), B.subtilis; details: Bacillus subtilis, PCI219, sensitive-disk agar medium-N
Method: as §1, §2, §3, §4

E.coli NIHJ JC-2 = test: Antibacterial Test 2: agar plate dilution method (aerobic MIC method), E.coli; details: Escherichia coli, NIHJJC2, sensitive-disk agar medium-N
Method: as §1, §2, §3, §4

K.pneumoniae PCI 602 = test: Antibacterial Test 2: agar plate dilution method (aerobic MIC method), K.pneumoniae; details: Klebsiella pneumoniae, PCI602, sensitive-disk agar medium-N
Method: as §1, §2, §3, §4

P.aeruginosa IFO 3445 = test: Antibacterial Test 2: agar plate dilution method (aerobic MIC method), P.aeruginosa; details: Pseudomonas aeruginosa, IFO3445, sensitive-disk agar medium-N
Method: as §1, §2, §3, §4

MIC [1] [µg/mL] | MIC (S.aureus FDA 209P) [µg/mL] | MIC (M.luteus ATCC 9341) [µg/mL] | MIC (E.faecalis RIMD 3336001) [µg/mL] | MIC (B.subtilis PCI 219) [µg/mL] | MIC (E.coli NIHJ JC-2) [µg/mL] | MIC (K.pneumoniae PCI 602) [µg/mL] | MIC (P.aeruginosa IFO 3445) [µg/mL] | SMILES
0.05 | 0.1 (≈ 0.274 µM) | ≤ 0.05 | 0.2 (≈ 0.547 µM) | 0.2 (≈ 0.547 µM) | 3.13 (≈ 8.57 µM) | 50 (≈ 137 µM) | > 100 | CC1(C)S[C@@H]2[C@H](NC(=O)[C@H](N)c3ccc(O)cc3)C(=O)N2[C@H]1C(=O)O [amoxicillin, reference compound]
0.39 | 50 (≈ 261 µM) | > 100 | > 100 | > 100 | > 100 | > 100 | > 100 | COc1ccc2c(=S)cc[nH]c2c1 [compound 1, 7-Methoxyquinoline-4(1H)-thione]
1.56 | > 100 | > 100 | > 100 | > 100 | > 100 | > 100 | > 100 | CC(C)c1ccc2c(=S)cc[nH]c2c1 [compound 2, 7-Isopropylquinoline-4(1H)-thione]
1.56 | > 100 | > 100 | > 100 | > 100 | > 100 | > 100 | > 100 | S=c1cc[nH]c2cc(-c3ccccc3)ccc12 [compound 3, 7-Phenylquinoline-4(1H)-thione]
1.56 | > 100 | > 100 | > 100 | > 100 | > 100 | > 100 | > 100 | S=c1cc[nH]c2cc(COc3ccccc3)ccc12 [compound 6, 7-Phenoxymethylquinoline-4(1H)-thione]
6.25 |  |  |  |  |  |  |  | O=[N+]([O-])c1cccc2c(=S)cc[nH]c12 [compound 7, 8-Nitroquinoline-4(1H)-thione]
0.39 |  |  |  |  |  |  |  | Cc1ccc2c(=S)cc[nH]c2c1 [compound 11, 7-Methylquinoline-4(1H)-thione]
6.25 |  |  |  |  |  |  |  | NC(=O)c1ccc2c(=S)cc[nH]c2c1 [compound 12, 7-Carbamoylquinoline-4(1H)-thione]
1.56 |  |  |  |  |  |  |  | CC(=O)c1ccc2c(=S)cc[nH]c2c1 [compound 13, 7-Acetylquinoline-4(1H)-thione]
0.39 | > 100 | > 100 | > 100 | > 100 | > 100 | > 100 | > 100 | CCCCCCc1ccc2c(=S)cc[nH]c2c1 [compound 15, 7-n-Hexylquinoline-4(1H)-thione]
1.56 | 50 (≈ 244 µM) | 100 (≈ 487 µM) | 50 (≈ 244 µM) | 100 (≈ 487 µM) | > 100 | > 100 | > 100 | COCc1ccc2c(=S)cc[nH]c2c1 [compound 16, 7-Methoxymethylquinoline-4(1H)-thione]
0.39 | > 100 | > 100 | > 100 | > 100 | > 100 | > 100 | > 100 | CSc1ccc2c(=S)cc[nH]c2c1 [compound 17, 7-Methylthioquinoline-4(1H)-thione]
3.13 |  |  |  |  |  |  |  | O=[N+]([O-])c1ccc2c(=S)cc[nH]c2c1 [compound 19, 7-Nitroquinoline-4(1H)-thione]
3.13 | > 100 | > 100 | > 100 | > 100 | > 100 | > 100 | > 100 | CCOc1ccc2c(=S)cc[nH]c2c1 [compound 22, 7-Ethoxyquinoline-4(1H)-thione]
0.78 | > 100 | > 100 | > 100 | > 100 | > 100 | > 100 | > 100 | CC(C)Oc1ccc2c(=S)cc[nH]c2c1 [compound 23, 7-Isopropyloxyquinoline-4(1H)-thione]
1.56 | > 100 | > 100 | > 100 | > 100 | > 100 | > 100 | > 100 | CCCCCCOc1ccc2c(=S)cc[nH]c2c1 [compound 24, 7-n-Hexyloxyquinoline-4(1H)-thione]

MIC [1] [µg/mL] | MIC (S.aureus FDA 209P) [µg/mL] | MIC (M.luteus ATCC 9341) [µg/mL] | MIC (E.faecalis RIMD 3336001) [µg/mL] | MIC (B.subtilis PCI 219) [µg/mL] | MIC (E.coli NIHJ JC-2) [µg/mL] | MIC (K.pneumoniae PCI 602) [µg/mL] | MIC (P.aeruginosa IFO 3445) [µg/mL] | SMILES
6.25 |  |  |  |  |  |  |  | S=c1cc[nH]c2cc(OCc3ccccc3)ccc12 [compound 25, 7-Benzyloxyquinoline-4(1H)-thione]
1.56 | 100 (≈ 456 µM) | > 100 | > 100 | > 100 | > 100 | > 100 | > 100 | CCCOc1ccc2c(=S)cc[nH]c2c1 [compound 26, 7-n-Propoxyquinoline-4(1H)-thione]
0.39 | 25 (≈ 97.9 µM) | 50 (≈ 196 µM) | 50 (≈ 196 µM) | > 100 | > 100 | > 100 | > 100 | CS(=O)(=O)Oc1ccc2c(=S)cc[nH]c2c1 [compound 28, 7-Methanesulfonyloxyquinoline-4(1H)-thione]
1.56 | > 100 | 100 (≈ 303 µM) | > 100 | > 100 | > 100 | > 100 | > 100 | CCCCCCCCCCCCc1ccc2c(=S)cc[nH]c2c1 [compound 30, 7-Dodecylquinoline-4(1H)-thione]
0.39 | > 100 | > 100 | > 100 | > 100 | > 100 | > 100 | > 100 | S=c1cc[nH]c2cc(CCc3ccccc3)ccc12 [compound 31, 7-Phenethylquinoline-4(1H)-thione]
0.78 | > 100 | > 100 | > 100 | > 100 | > 100 | > 100 | > 100 | S=c1cc[nH]c2cc(/C=C/c3ccccc3)ccc12 [compound 32, trans-7-Styrylquinoline-4(1H)-thione]
6.25 |  |  |  |  |  |  |  | CN(C)Cc1ccc2c(=S)cc[nH]c2c1 [compound 33, 7-N,N-Dimethylaminomethylquinoline-4(1H)-thione]
0.78 | > 100 | > 100 | > 100 | > 100 | > 100 | > 100 | > 100 | CC(C)N(C)c1ccc2c(=S)cc[nH]c2c1 [compound 34, 7-(N-Isopropyl-N-methylamino)quinoline-4(1H)-thione]
0.39 | 100 (≈ 406 µM) | 100 (≈ 406 µM) | > 100 | 100 (≈ 406 µM) | > 100 | > 100 | > 100 | S=c1cc[nH]c2cc(N3CCOCC3)ccc12 [compound 36, 7-Morpholinoquinoline-4(1H)-thione]
0.78 | > 100 | > 100 | > 100 | > 100 | > 100 | > 100 | > 100 | S=c1cc[nH]c2cc(SCc3ccccc3)ccc12 [compound 37, 7-Benzylthioquinoline-4(1H)-thione]
0.78 | > 100 | > 100 | > 100 | > 100 | > 100 | > 100 | > 100 | S=c1cc[nH]c2cc(Oc3ccccc3)ccc12 [compound 38, 7-Phenoxyquinoline-4(1H)-thione]
0.39 |  |  |  |  |  |  |  | COc1cccc2c(=S)cc[nH]c12 [compound 42, 8-Methoxyquinoline-4(1H)-thione]
0.39 |  |  |  |  |  |  |  | S=c1cc[nH]c2c1ccc1cccnc12 [compound 45, 1,10-Phenanthroline-4(1H)-thione]
3.13 |  |  |  |  |  |  |  | S=c1cc[nH]c2cc(-c3ccc4ccccc4c3)ccc12 [compound 46, 7-(2-Naphtyl)quinoline-4(1H)-thione]
6.25 |  |  |  |  |  |  |  | CCCCCCCCCCCCOc1ccc2c(=S)cc[nH]c2c1 [compound 52, 7-Dodecyloxyquinoline-4(1H)-thione]

SMILES | MIC [1] [µg/mL] | MIC (S.aureus FDA 209P) [µg/mL] | MIC (M.luteus ATCC 9341) [µg/mL] | MIC (E.faecalis RIMD 3336001) [µg/mL] | MIC (B.subtilis PCI 219) [µg/mL] | MIC (E.coli NIHJ JC-2) [µg/mL] | MIC (K.pneumoniae PCI 602) [µg/mL] | MIC (P.aeruginosa IFO 3445) [µg/mL]
CC(=O)OCc1ccc2c(=S)cc[nH]c2c1 [compound 29, 7-Acetoxymethylquinoline-4(1H)-thione] | 0.78 | 25 (≈ 107 µM) | 50 (≈ 214 µM) | 50 (≈ 214 µM) | 100 (≈ 429 µM) | > 100 | > 100 | > 100

— patent publication US5773449A, “Thioquinolone compounds which have useful pharmaceutical activity” (Zenyaku Kogyo Kabushiki Kaisha, priority 1994, dated 1998)
